One series deals with H4. The experiment in a line: Inhibition of sphere formation in human H4 cells assessed as fold reduction in sphere initiating frequency at 1 uM incubated for 10 days by microscopic analysis relative to control. It counts as functional. The conditions noted are these: time 10 day.
The test system of a further series is LN-229. Put plainly: Inhibition of sphere formation in human LN-229 cells assessed as fold reduction in sphere initiating frequency at 4 uM incubated for 10 days by microscopic analysis relative to control. Type of series: functional. The conditions noted are these: time 10 day.
Series [1] is described as follows: Toxicity in male C57BL/6 mouse assessed as change in cellular structure of brain at 45 mg/kg, po administered once a day for 2 weeks by H and E staining based analysis. Type of series: organism-based. The note with it: in vivo, 336 h.
The nature of series [2]: Toxicity in male C57BL/6 mouse assessed as change in cellular structure of heart at 45 mg/kg, po administered once a day for 2 weeks by H and E staining based analysis. Type of series: organism-based. The conditions noted are these: in vivo, 336 h.
The next series has as its system Hs 683. Put plainly: Inhibition of sphere formation in human Hs 683 cells at 1 uM measured after 10 days in well containing 1000 cells by microscopic analysis. It counts as functional, cell-based. The conditions noted are these: time 10.0 day.

The source made the active and inactive calls. The calls are words filed in the database; no cut-off is given here.

For `N#CC1(C(=O)NCCC2CCN(Cc3ccccc3)CC2)CC2(Br)c3ccccc3C1c1ccccc12` (racemic), the “fold change (FC)” value in the series on H4 came out at 14.09; in the series with LN-229, 36.42. Also, the Activity entry in series [1] and in series [2] was “Non-Toxic” each time. Moreover, in the series on Hs 683, the inhibition entry is “inactive”.
